What was measured:
Ross broilers = test: Broiler floor pen trial to day 39, formulations with or without calcium butyrate vs Avilamycine; type: in vivo
From the text: The objective of this trial was to study and compare two formulations (Table 4) with organic acids and calcium salts of organic acids. One of the formulations included calcium butyrate. Both formulations were compared with a positive and negative control in order to evaluate their possible growth promoting effect evaluated by broiler performance.
Twelve-hundred Ross broilers were divided over 40 floor pens. Each pen contained 15 male and 15 female Ross broilers, one tube feeder and one bell drinker. Feed and water were available ad libitum. All birds received a broiler starter feed from day 0 until day 11 and a broiler finisher meal from day 11 until day 39. […] Pens were assigned to one of four treatments (ten replicate pens for each treatment) using a block randomization. The in feed treatments consisted of: A. no treatment (negative control); B. Avilamycine 10 g/ton (positive control, dosed as Maxus G200 at 50 g/ton); C. Mixture 1, 5000 g/ton and D. mixture 2, 5000 g/ton. In the broiler house the temperature program started on day 0 at 31° C. decreasing 1° C. every two days until 21° C. was reached. The day-night cycle was 23 hours light and 1 hour dark. All birds were weighed at days 0, 11, 25, and 39. Feed usage was measured at days 11, 25 and 39. Live performance data were analyzed as a randomized block design with pen means as the statistical unit. Statistical analysis was performed with Figurepad Instat 2.0 and Microsoft Excel Analysis Toolpak software.

Ross broiler chicks = test: Broiler pen trial, early chick growth to 15 days (organic acids and sodium butyrate); type: in vivo
From the text: In a broiler trial four different treatments were used in order to evaluate the possible synergistic effect between organic acids and sodium butyrate.
This pen trial included eight replicates of four treatments (Table 1). Each pen had 74 mixed sex commercial Ross broiler chicks. Birds were fed a wheat-based diet including enzymes. All birds were weighed on days 1, 5, 10 and 15.

[1] = day 11, Avilamycine 10 g/ton, formulations 5000 g/ton in feed, mean ± SD
[2] = day 25, Avilamycine 10 g/ton, formulations 5000 g/ton in feed, mean ± SD
[3] = day 39, Avilamycine 10 g/ton, formulations 5000 g/ton in feed, mean ± SD
[4] = to 15 days, wheat-based diet, doses as in Table 1

| Compound | FCR day 11 (Ross broilers; [1]) [a] | WG(g) Day 11 (Ross broilers; [1]) [a g] | Weight gain compared with control groups, in words (Ross broilers; day 25) | FCR day 25 (Ross broilers; [2]) [a] | WG(g) Day 25 (Ross broilers; [2]) [b g] | FCR day 39 (Ross broilers; [3]) [ab] | WG(g) Day 39 (Ross broilers; [3]) [b g] | Feed conversion ratio based on weight gain, statistical comparison with control/other treatments (Ross broiler chicks; day 15, P<0.039 for the combination) | FCR based on wt gain (Ross broiler chicks; [4]) [a] | Feed consumed (g/bird) (Ross broiler chicks; [4]) | Weight gain (g/bird) (Ross broiler chicks; [4]) [a g/bird] |
| --- | --- | --- | --- | --- | --- | --- | --- | --- | --- | --- | --- |
| Avilamycine | 1.314 ± 0.034 | 227 ± 7 | performed better than the negative control group | 1.775 ± 0.135 | 853 ± 44 | 1.839 ± 0.061 | 1981 ± 58 |  |  |  |  |
| CCCC(=O)[O-].[Na+] [Treatment B, sodium butyrate] |  |  |  |  |  |  |  | not statistically different from the control group | 1.279 | 441.3 | 358.4 |

— patent US7001625B2, “Solid phase synthesis of salts of organic acids including butyric acid” (Kemin Industires, Inc., priority 2001, dated 2006)
